# Key:
# [1] = target: T1, Indoleamine 2,3-dioxygenase 1 (Homo sapiens, UniProt P14902); test: Inhibition of recombinant human IDO1 assessed as N-formylkynurenine formation using L-tryptophan as substrate measured after 1 hr by UV-vis spectrophotometric analysis
# [2] = target: Tryptophan 2,3-dioxygenase (Homo sapiens, UniProt P48775); test: Inhibition of recombinant human TDO assessed as N-formylkynurenine formation using L-tryptophan as substrate measured after 1 hrs by UV-vis spectrophotometric analysis
# [3] = target: T1, Indoleamine 2,3-dioxygenase 1; test: Inhibition of human IDO1 in IFN-gamma-induced human MDA-MB-231 cells assessed as N-formylkynurenine formation using L-tryptophan as substrate pretreated for 4 hrs followed substrate addition measured after 5 hrs by UV-vis spectrophotometric analysis; format: cell-based
# [4] = target: T1, Indoleamine 2,3-dioxygenase 1; test: Inhibition of recombinant human IDO1 assessed as N-formylkynurenine formation using L-tryptophan as substrate measured after 1.5 hrs by HPLC analysis
# T1 sequence (P14902 whole entry): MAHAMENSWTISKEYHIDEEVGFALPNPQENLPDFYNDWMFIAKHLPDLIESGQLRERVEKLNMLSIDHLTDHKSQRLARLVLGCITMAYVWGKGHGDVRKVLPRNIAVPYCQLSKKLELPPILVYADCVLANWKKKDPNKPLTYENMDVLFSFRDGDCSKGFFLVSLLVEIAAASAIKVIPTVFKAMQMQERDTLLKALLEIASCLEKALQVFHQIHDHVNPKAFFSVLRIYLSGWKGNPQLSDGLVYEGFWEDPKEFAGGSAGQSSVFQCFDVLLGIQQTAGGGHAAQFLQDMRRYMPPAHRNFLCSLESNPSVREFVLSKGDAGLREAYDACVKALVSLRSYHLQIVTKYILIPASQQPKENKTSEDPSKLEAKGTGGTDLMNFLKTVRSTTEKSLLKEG
# Tryptophan 2,3-dioxygenase, sequence (P48775 whole entry): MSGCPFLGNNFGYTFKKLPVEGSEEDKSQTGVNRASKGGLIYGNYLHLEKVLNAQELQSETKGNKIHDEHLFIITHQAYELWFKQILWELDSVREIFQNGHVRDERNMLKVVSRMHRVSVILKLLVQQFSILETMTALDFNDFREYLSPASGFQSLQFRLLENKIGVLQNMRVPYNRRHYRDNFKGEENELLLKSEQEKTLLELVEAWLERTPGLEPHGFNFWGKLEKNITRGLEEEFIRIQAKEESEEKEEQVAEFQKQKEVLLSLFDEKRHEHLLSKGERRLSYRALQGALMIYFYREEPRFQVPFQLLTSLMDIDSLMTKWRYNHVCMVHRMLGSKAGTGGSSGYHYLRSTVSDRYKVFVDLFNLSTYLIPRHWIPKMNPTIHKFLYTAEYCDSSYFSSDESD
SMILES,IC50 [1] [nM],IC50 [2] [nM],IC50 [3] [nM],IC50 [4] [nM]
Cc1cccc(/C(=N/O)Nc2ccc([N+](=O)[O-])c3nonc23)c1,163,,,
O=[N+]([O-])c1ccc(N/C(=N\O)c2ccccc2)c2nonc12,268,,,
O=[N+]([O-])c1ccc(N/C(Cc2ccc(Cl)c(Cl)c2)=N\O)c2nonc12,39,32000,71,53
O=[N+]([O-])c1ccc(N/C(Cc2cccc(F)c2)=N\O)c2nonc12,131,,,
O=[N+]([O-])c1ccc(N/C(Cc2ccc(F)c(F)c2)=N\O)c2nonc12,59,94000,50,49
O=[N+]([O-])c1ccc(N/C(=N\O)c2ccc(Br)cc2)c2nonc12,117,50000,,
O=[N+]([O-])c1ccc(N/C(=N\O)c2ccc(F)c(Br)c2)c2nonc12,92,47000,107,106
O=[N+]([O-])c1ccc(N/C(=N\O)c2ccccc2Cl)c2nonc12,135,,,
Cc1ccc(/C(=N/O)Nc2ccc([N+](=O)[O-])c3nonc23)cc1,204,,,
O=[N+]([O-])c1ccc(N/C(Cc2ccccc2F)=N\O)c2nonc12,102,30000,131,75
Nc1nonc1C(=NO)Nc1ccc(F)c(Cl)c1,,24000,,
O=[N+]([O-])c1ccc(N/C(Cc2ccc(Br)cc2)=N\O)c2nonc12,112,43000,,
O=[N+]([O-])c1ccc(N/C(Cc2ccccc2)=N\O)c2nonc12,307,,,
O=[N+]([O-])c1ccc(N/C(=N\O)c2ccccc2Br)c2nonc12,80,25000,66,64
O=[N+]([O-])c1ccc(N/C(=N\O)c2ccc(Cl)cc2)c2nonc12,113,40000,,
COc1ccc(C/C(=N/O)Nc2ccc([N+](=O)[O-])c3nonc23)cc1,128,,,
O=[N+]([O-])c1ccc(N/C(=N\O)c2ccc(F)cc2)c2nonc12,100,21000,125,60
O=[N+]([O-])c1ccc(N/C(=N\O)c2cccc(Cl)c2)c2nonc12,184,,,
O=[N+]([O-])c1ccc(N/C(Cc2ccc(F)cc2)=N\O)c2nonc12,98,65000,151,73
O=[N+]([O-])c1ccc(N/C(=N\O)c2ccc(F)c(Cl)c2)c2nonc12,158,,,
O=[N+]([O-])c1ccc(N/C(Cc2ccc(F)cc2F)=N\O)c2nonc12,160,19000,,
O=[N+]([O-])c1ccc(N/C(Cc2cccc(Cl)c2)=N\O)c2nonc12,199,,,
O=[N+]([O-])c1ccc(N/C(=N\O)c2ccccc2F)c2nonc12,63,110000,131,56
O=[N+]([O-])c1ccc(N/C(Cc2ccc(Cl)cc2)=N\O)c2nonc12,127,51000,110,78
O=[N+]([O-])c1ccc(N/C(=N\O)c2cccc(F)c2)c2nonc12,75,45000,245,84
O=[N+]([O-])c1ccc(N/C(=N\O)c2cccc(Br)c2)c2nonc12,105,20000,,
